{"source": "patent US7635722B1", "about": "“Chemical induced intracellular hyperthermia” (priority 1998, dated 2009)", "key": {"[1]": {"tested_on": "Normal rat liver", "test": "reactive oxygen species formation in rat liver infused with DNP", "conditions": "upon cessation of uncoupling (FIG. 9)"}, "[2]": {"tested_on": "Kaposi's sarcoma and nontumorous oral mucosa tissues", "test": "microcalorimetric heat output of biopsy specimens", "parameters": "species or system human", "conditions": "biopsy specimens in 30 uM DNP", "text": "Laboratory studies: EKG, serum electrolytes, renal and liver function tests were normal. Hematocrit was 35.5%, WBC was 9,900 with 81% neutrophils, 4 bands, 11 lymphocytes and 4 monocytes. Platelets were 314,000/mm^3. Viral load was 400,000 copies/ml (Amplicor HIV Monitor test, Roche). A CD4^+ T cell count was quantified by flow cytometry at 250/mm^3. They were antibody positive for hepatitis C. […] Karnofsky score was greater than 70. Normal and tumor tissue biopsies, 3 to 6 mm in diameter, from the oral cavity and anus were obtained. The tissues were equally divided, weighed and placed in 4° C. Ringers lactate solution. Histologically confirmed normal and KS tissues were then subjected to microcalorimetric measurements in a thermal activity monitor (ThermoMetric, Jarfalla, Sweden). Recorded heat output (μW/min) was 8.2-8.5 times greater for the KS sarcoma lesions than nontumorous oral mucosa tissues. Repeat measurements with biopsies specimens in 30 uM DNP increased heat production in tumorous tissues 20.5 times more than nontumorous specimens."}, "[3]": {"conditions": "man and animals accidentally intoxicated; cited from earlier work"}, "[4]": {"tested_on": "Kaposi's sarcoma", "test": "DNP hyperthermia, Kaposi's sarcoma lesions (Example 2)", "format": "in vivo, human", "experimental": "Pretreatment protocol: all medications were stopped 2 weeks prior to treatment. The patient refused taking diazepam, placement of a Foley catheter and oxygen face mask. They dressed themself into a dry cold water immersion suit (Stearns, ISS-590I, Universal Adult) designed to prevent heat loss and modified for easy placement of physiologic monitors. Equipment for measurement of heart rate, temperature, carbon dioxide production and Kcal of heat produced were conducted as outlined in Example 1. An oral breathing tube was used to measure V02 from room air. Urine output was measured when the patient voluntarily urinated through a “Texas” catheter (superficial condom tightly fitted around the head of the penis with tubing connected to urine collection bag). The patient was informed that hyperthermia would be administered as tolerated by their stamina and monitored clinical parameters, not to exceed 5 hours, on a daily or every other day basis, for a total of 5 sessions.\nTreatment procedure: Baseline reading for 5 minutes established an average V02 of 300 cc/min. An initial dose of 2 mg/kg of DNP was administered over a 2 minute period. V02 increased and stabilized at 15 minutes at 340-380 cc/min. An additional 2 mg/kg DNP infusion was given, the V02 increased and stabilized at 610-630 cc/min. […]"}, "[5]": {"tested_on": "peritoneal carcinomatosis, undifferentiated adenocarcinoma", "test": "DNP with vasopressor and chemotherapy, peritoneal carcinomatosis (Example 4)", "format": "in vivo, human", "text": "It was elected to treat the patient with hyperthermochemotherapy. Treatment consisted of DNP, and combination chemotherapy with carboplatin, mitomycin, and doxifluridine. An α-1 adrenergic receptor agonist was used to minimize peripheral vascular dilation and heat loss.\nPretreatment protocol: the patient was transfused with three units of packed red blood cells. A Foley catheter was inserted on each day of treatment. They were covered in a water soaked blanket containing a polyethylene lining. A shower cap with towels was used to prevent heat loss from the head. Intravenous lines were placed into both arms with 19 gauge intracaths. EKG, heart rate, rectal thermistor, and V02 monitors were attached. Oxygen supplemented facemask and equipment was attached and data monitored as previously described under Example 1.\nTreatment protocol: the patient was given chemotherapy […]. The total doses of carboplatin, and mitomycin were 450 mg and 24 mg IV respectively on day 1 and last day of week 6. Doxifluridine, 600 mg, was orally administered every day for 5 days and repeated the last 5 days of week 6. On the day of DNP infusion, baseline recordings were established for 10 minutes. Mephenteramine sulfate, 30 mg, was given by intramuscular injection. Ten minutes later their heart rate increased to 96 and […] V02 increased from 250 to 320 cc/min. V02, heart rate and blood pressure stabilized after 20 minutes and they were given an initial dose of 1 mg/kg DNP. Additional 0.5 mg/kg infusions of DNP were administered in 3 successive infusions spaced 20 minutes apart. […] The DNP treatment protocol was repeated every fourth day for a period of 6 weeks."}, "[6]": {"tested_on": "Echinococcus multilocularis", "test": "DNP with glucagon, hydatid disease of the liver (Example 1)", "format": "in vivo, human", "experimental": "Pretreatment protocol: the patient was given 10 mg diazepam by mouth and dressed into a modified wet suit. The wet suit was cut lengthwise at the arms and legs. Velcro strappings were attached at the cuttings for closure, rapid removal or exposure of the limb(s). After placement of monitoring sensors, they were started on IV fluids of 5% dextrose, 0.5 normal saline with 7 meq K^+, infused at an initial rate of 12 cc/kg/hr. Evaporative heat loss from the head was minimized by a plastic shower cap and towels. A 401AC temperature probe (YSI Incorporated, Yellow Springs, Ohio) was inserted 11 cm. into the rectum. […] A TEEM 100 Metabolic Analysis System (AeroSport Inc., Ann Arbor, Mich.), with a modified face mask and oxygen delivery system (38-40% 02 saturation) for patient comfort and increased accuracy, was attached to the patient. Oxygen consumption (V02), carbon dioxide production (VC02), expired air volume (VE), heart rate (HR), and Kcal of heat produced were measured in 20 second intervals and extrapolated to minute or hourly rates.\nTreatment procedure: After baseline recordings of 10 minutes, the required amount of DNP to raise the initial V02 to achieve a temperature in the patient of 40° C. was calculated as described under “DNP dosage required to increase V02”. The patient was given an initial dose of 1 mg/kg of DNP, infused intravenously over a 3 minute period. […]"}}, "data": [{"smiles": "O=[N+]([O-])c1ccc(O)c([N+](=O)[O-])c1", "note": "[DNP, 2,4-dinitrophenol]", "values": [{"measurement": "formation of reactive oxygen species", "setting": "[1]", "value": "threefold"}, {"measurement": "heat production in tumorous tissues versus nontumorous specimens", "setting": "[2]", "value": 20.5, "unit": "times"}, {"measurement": "hyperthermia", "setting": "[3]", "value": "up to 49 °C"}, {"measurement": "anal tumor diminished in size", "setting": "[4]; 5th and last day of therapy", "value": "approximately 60%"}, {"measurement": "oral and anal KS lesions", "setting": "[4]; 30 days post-treatment", "value": "complete regression of both oral and anal KS lesions"}, {"measurement": "magnetic resonance imaging and echo of the abdomen", "setting": "[5]; after combined treatments", "value": "complete resolution of peritoneal metastasis"}, {"measurement": "ascites", "setting": "[5]; end of the sixth week, DNP with carboplatin, mitomycin, doxifluridine", "value": "resolved"}, {"measurement": "survival", "setting": "[5]; nine and a half months after treatment", "value": "alive without any evidence of tumor reoccurrence"}, {"measurement": "serum levels of amylase and all tumor markers", "setting": "[5]; week 6, combined treatments", "value": "normal at week 6"}, {"measurement": "serial imaging of hepatic and bone cysts", "setting": "[6]; 2 and 4 weeks post treatment", "value": "hepatic and bone cyst shrinkage with increased density"}, {"measurement": "magnetic resonance imaging of cysts", "setting": "[6]; 4 months", "value": "complete cyst disappearance in the liver and bone"}]}]}
